The source of these data is patent US20190223483A1, “SENSORY MODIFIER COMPOUNDS” (CARGILL, INCORPORATED, priority 2017, published 2019).

Holding throughout (assay type): in vivo
Assay [1] can be described thus: Roundtable assessment of spikey/rounded sweetness quality (scale 0 to 3). Set-up: key: 0=none; 1=mostly spikey, some rounded; 2=mostly rounded, some spikey; 3=rounded. As for the experimental part: (§1) For other sweetness attributes, the solutions were tested by a panel of at least four individuals that are highly-trained in tasting steviol glycoside solutions. The highly-trained panelists used a roundtable methodology to assess each sweetness attribute. To test each solution, the highly-trained panelists dispensed approximately 2 mL of each solution into their own mouths by transfer pipet, dispersed the solution by moving their tongues, and recorded a value for the particular sweetness attribute being tested. Between tasting solutions, the panelists were able to cleanse their palates with water. For each sweetness attribute, the panelist agreed on a descriptive scale with relative intensities assigned for each sweetness attribute and then recorded the values for each sweetness attribute against this. For example, this roundtable assessment of sweetness linger assigned a scale of 0 to 6 with a score of 0 indicating no sweetness linger and a score of 6 indicating extreme sweetness linger. Roundtable assessment of sweetness linger assigned a scale of 0 to 6 with a score of 0 indicating no sweetness linger and a score of 6 indicating extreme sweetness linger (0=none, 1=trace, 2=slight, 3=moderate, 4=definite, 5=strong, 6=extreme). Roundtable assessment of rounded assigned a scale of 0 to 3 with a score of 0 indicating spikey and a score of 3 indicating desirable rounded (0=none, 1=mostly spikey, some rounded, 2=mostly rounded, some spikey, 3=rounded). Roundtable assessment of mouthfeel assigned a scale of 0 to 2 with a score of 0 indicating water and a score of 2 indicating syrupy (0=water, 1=sucrosey, 2=syrupy). Roundtable assessment of bitterness assigned a scale of 0 to 6 with a score of 0 indicating no bitterness and a score of 6 indicating extreme sweetness linger (0=none, 1=trace, 2=slight, 3=moderate, 4=definite, 5=strong, 6=extreme). Roundtable assessment of off tastes assigned a scale of 0 to 6 with a score of 0 indicating no bitterness and a score of 6 indicating extreme off tastes (0=none, 1=trace, 2=slight, 3=moderate, 4=definite, 5=strong, 6=extreme).
A series of assays were carried out to characterize a sweetness quality of a not preferred spikey quality (a zero value) to a more desirable rounded quality (a 3 value) of steviol glycoside compositions with sensory modifier compound using the roundtable methodology described in Example 1. Rounded quality has the sensory experience of being more like sucrose. […] Solutions of steviol glycosides and sensory modifier compound were prepared at increasing ratios of sensory modifier to steviol glycoside by weight. The steviol glycosides were RebA (4 glycoside groups), RebD (5 glycoside groups), RebM (6 glycoside groups), and OPS1-5(7 glycoside groups) and the sensory modifier compound was monocaffeoylquinic and dicaffeoylquinic acids prepared from yerba mate. […] The solutions were tested for spikey/rounded.

Assay [2] can be described thus: Roundtable assessment of bitterness (scale 0 to 6). The arrangement: key: 0 = none; 1 = trace/faint; 2 = slight; 3 = moderate; 4 = definite; 5 = strong; 6 = extreme. As for the experimental part:
as §1
A series of assays were carried out to characterize bitterness (0=none, 1=trace/faint, 2=slight, 3=moderate, 4=definite, 5=strong, 6=extreme) of steviol glycoside compositions with sensory modifier compound using the roundtable methodology described in Example 1. […] Solutions of steviol glycosides and sensory modifier compound were prepared at increasing ratios of sensory modifier to steviol glycoside by weight. The steviol glycosides were RebA (4 glycoside groups), RebD (5 glycoside groups), RebM (6 glycoside groups), and OPS1-5(7 glycoside groups) and the sensory modifier compound was monocaffeoylquinic and dicaffeoylquinic acids prepared from yerba mate. The concentration of steviol glycosides was 700 ppm in each solution. The solutions were tested for bitterness.

A short description of assay [3]: Roundtable assessment of astringency. The arrangement: key: 0 = none; 1 = trace/faint; 2 = slight; 3 = moderate; 4 = definite; 5 = strong; 6 = extreme.
Method: Roundtable assessment of botanical notes assigned a scale of 0 to 5 with a score of 0 indicating no botanical notes and a score of 5 indicating strong (0=none, 1=trace, 2=slight, 3=moderate, 4=definite, 5=strong).
Solutions of steviol glycosides and sensory modifier compound were prepared at increasing ratios of sensory modifier to steviol glycoside by weight. […] The concentration of steviol glycosides was 700 ppm in each solution. The solutions were tested for astringency.
[4] abbreviates: steviol glycoside 700 ppm + yerba mate mono/dicaffeoylquinic acids 630 ppm.
Where [5] appears, read: steviol glycoside 700 ppm + yerba mate mono/dicaffeoylquinic acids 946 ppm.
Setting [6] is: steviol glycoside 700 ppm + yerba mate mono/dicaffeoylquinic acids […].
Setting [7] is: steviol glycoside 700 ppm, sensory modifier 0 ppm.
Where [8] appears, read: steviol glycoside 700 ppm + yerba mate mono/dicaffeoylquinic acids 270 ppm.
[9] abbreviates: steviol glycoside 700 ppm + yerba mate mono/dicaffeoylquinic acids 540 ppm.
The mark [10] stands for this setting: steviol glycoside 700 ppm + yerba mate mono/dicaffeoylquinic acids 810 ppm.

With `C=C1C[C@@]23CC[C@H]4[C@@](C)(CCC[C@@]4(C)C(=O)O[C@@H]4O[C@H](CO)[C@@H](O)[C@H](O)[C@H]4O)[C@@H]2CC[C@]1(O[C@@H]1O[C@H](CO)[C@@H](O)[C@H](O[C@@H]2O[C@H](CO)[C@@H](O)[C@H](O)[C@H]2O)[C@H]1O[C@@H]1O[C@H](CO)[C@@H](O)[C@H](O)[C@H]1O)C3` [RebA, Rebaudioside A], the “Spikey/rounded (spikey = 0) (rounded = 3)” value in assay [1] (setting [4]) is reported as “Not observed”; in assay [1] (setting [5]) it was “Not observed”; in assay [1] (setting [6]), “Not observed”; in assay [1] (setting [7]), 0. Also, in assay [2] (RebA 700 ppm, higher concentrations of sensory modifier), the bitterness score is listed as 3. The Bitterness turned out to be 3 in assay [2] (setting [4]), 3 in assay [2] (setting [5]), 5 in assay [2] (setting [6]) and 6 in assay [2] (setting [7]). Besides, the Astringency in assay [3] (setting [4]) was 1; in assay [3] (setting [5]), 3; in assay [3] (setting [6]), “Not observed”; in assay [3] (setting [7]), “Not observed”.

In the case of `C=C1C[C@@]23CC[C@H]4[C@@](C)(CCC[C@@]4(C)C(=O)O[C@@H]4O[C@H](CO)[C@@H](O)[C@H](O)[C@H]4O[C@@H]4O[C@H](CO)[C@@H](O)[C@H](O)[C@H]4O)[C@@H]2CC[C@]1(O[C@@H]1O[C@H](CO)[C@@H](O)[C@H](O[C@@H]2O[C@H](CO)[C@@H](O)[C@H](O)[C@H]2O)[C@H]1O[C@@H]1O[C@H](CO)[C@@H](O)[C@H](O)[C@H]1O)C3` [RebD, Rebaudioside D], the “Spikey/rounded (spikey = 0) (rounded = 3)” value was 1 in assay [1] (setting [8]), 3 in assay [1] (setting [9]), 3 in assay [1] (setting [10]) and 2 in assay [1] (setting [7]). The Bitterness in assay [2] (setting [8]), in assay [2] (setting [9]), in assay [2] (setting [10]) and in assay [2] (setting [7]) was 0 each time. Further, the Astringency in assay [3] (setting [8]) is 2; in assay [3] (setting [9]) it was 1; in assay [3] (setting [10]), 2; in assay [3] (setting [7]) it was “Not observed”.
